Measured values published in ChEMBL document CHEMBL1125324, “Development of a novel class of cyclic hexapeptide oxytocin antagonists based on a natural product” (J Med Chem, 1992).
In brackets after ≈: the same amount, converted by molar mass. *1 amine or outer side, *2 acyl side, *3 side chain or, on linkers, in order; H or OH if unused. Where a SMILES comes first, the peptide text is derived from it. [ ]: non-standard residue; d: D form. X1 = C=CCN([C@H](Cc1ccccc1)C(=O)[*:2])[*:1]; Piz(1,6-dehydro) = O=C(O)[C@@H]1CCC=NN1; dPiz(1,6-dehydro) = O=C(O)[C@H]1CCC=NN1; d1Nal = N[C@H](Cc1cccc2ccccc12)C(=O)O; d2Nal = N[C@H](Cc1ccc2ccccc2c1)C(=O)O; dNMeH = CN[C@H](Cc1c[nH]cn1)C(=O)O; dNMeF = CN[C@H](Cc1ccccc1)C(=O)O; Pip = O=C(O)[C@@H]1CCCCN1; dPip = O=C(O)[C@H]1CCCCN1; NMeA = CN[C@@H](C)C(=O)O; Nle = CCCC[C@H](N)C(=O)O; Orn = NCCC[C@H](N)C(=O)O; dNMeA = CN[C@H](C)C(=O)O

Experiments:
Oxytocin receptor = molecular target: T1, Oxytocin receptor (Rattus norvegicus, UniProt P70536); experiment: Concentration required to displace 50% of [3H]oxytocin from rat uterine receptor.
T1 sequence (P70536 whole entry): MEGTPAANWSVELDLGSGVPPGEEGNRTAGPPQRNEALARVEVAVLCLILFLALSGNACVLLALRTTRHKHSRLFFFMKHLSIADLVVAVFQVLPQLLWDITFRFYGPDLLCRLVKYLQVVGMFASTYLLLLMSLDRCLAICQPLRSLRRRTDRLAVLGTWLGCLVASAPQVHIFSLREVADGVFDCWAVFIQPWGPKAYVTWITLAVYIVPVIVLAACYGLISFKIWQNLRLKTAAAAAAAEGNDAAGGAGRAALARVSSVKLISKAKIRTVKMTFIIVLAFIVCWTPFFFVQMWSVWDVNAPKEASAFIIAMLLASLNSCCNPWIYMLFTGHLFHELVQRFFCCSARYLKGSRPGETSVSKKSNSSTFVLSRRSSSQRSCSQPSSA

Vasopressin V2 receptor = Vasopressin V2 receptor (Rattus norvegicus, UniProt Q00788); experiment: Inhibition of [3H]arginine vasopressin binding to AVP-V2 site in rat kidney medulla.; assay type: tissue-based
Vasopressin V1a receptor = Vasopressin V1a receptor (Rattus norvegicus, UniProt P30560); experiment: Concentration required to displace 50% of [3H]arginine vasopressin from rat liver arginine vasopressin 1A (AVP-V1a) site.
[1] = molecular target: Vasopressin V2 receptor (Rattus norvegicus) (UniProt Q00788); experiment: Displacement of [3H]arginine vasopressin from rat kidney medullary (AVP-V2 site) at 10 uM; assay type: tissue-based
[2] = molecular target: Vasopressin V1a receptor (Rattus norvegicus) (UniProt P30560); experiment: Displacement of [3H]arginine vasopressin from rat liver (AVP-V1a site) at 10 uM
[3] = Aqueous solubility was determined; assay type: physicochemical
Rattus norvegicus = experiment: Dose required for 50% reduction of the contractile response of the uterus to OT (1 ug/kg, iv bolus) in DES-pretreated rats; assay type: functional

Chain of Vasopressin V2 receptor (Q00788 whole entry): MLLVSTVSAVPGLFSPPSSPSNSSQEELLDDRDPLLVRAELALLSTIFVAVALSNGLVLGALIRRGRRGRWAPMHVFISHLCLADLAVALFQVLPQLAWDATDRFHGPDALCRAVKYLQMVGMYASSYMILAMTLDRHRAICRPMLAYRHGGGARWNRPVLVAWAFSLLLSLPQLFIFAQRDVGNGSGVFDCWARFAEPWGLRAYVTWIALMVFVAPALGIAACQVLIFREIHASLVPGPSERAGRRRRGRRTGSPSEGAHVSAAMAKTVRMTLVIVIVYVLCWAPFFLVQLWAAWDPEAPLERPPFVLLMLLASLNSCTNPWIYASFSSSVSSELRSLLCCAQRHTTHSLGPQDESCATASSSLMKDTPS
Chain of Vasopressin V2 receptor (Rattus norvegicus) (Q00788 whole entry): as above
Chain of Vasopressin V1a receptor (Rattus norvegicus) (P30560 whole entry, looked up): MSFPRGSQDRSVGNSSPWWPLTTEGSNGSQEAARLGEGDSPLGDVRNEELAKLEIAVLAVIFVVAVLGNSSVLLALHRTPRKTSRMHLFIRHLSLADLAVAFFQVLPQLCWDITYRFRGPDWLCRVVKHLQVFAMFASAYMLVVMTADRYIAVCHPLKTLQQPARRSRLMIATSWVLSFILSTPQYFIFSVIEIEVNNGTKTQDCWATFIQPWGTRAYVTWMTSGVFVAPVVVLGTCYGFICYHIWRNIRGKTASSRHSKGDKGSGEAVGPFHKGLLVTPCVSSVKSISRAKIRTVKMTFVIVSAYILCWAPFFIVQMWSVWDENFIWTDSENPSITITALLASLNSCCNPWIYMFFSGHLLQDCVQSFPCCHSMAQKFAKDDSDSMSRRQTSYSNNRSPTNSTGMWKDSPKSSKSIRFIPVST
Chain of Vasopressin V1a receptor (P30560 whole entry): as the sequence (P30560 whole entry, looked up) above

Structure (SMILES) | IC50 (Oxytocin receptor) [nM] | IC50 (Vasopressin V2 receptor) [nM] | IC50 (Vasopressin V1a receptor) [nM] | inhibition [1] [%] | inhibition [2] [%] | further results
CC[C@H](C)[C@@H]1NC(=O)[C@@H](Cc2cn(C)c3ccccc23)NC(=O)[C@@H]2CCCN2C(=O)[C@@H](Cc2cnc[nH]2)NC(=O)[C@@H]2CCCCN2C(=O)[C@H]2CCCCN2C1=O | 10 | 1300 | 3700 | – | – | –
CC[C@H](C)[C@@H]1NC(=O)[C@@H](Cc2ccccc2)NC(=O)[C@@H]2CCCN2C(=O)[C@@H](Cc2ccccc2)N(C)C(=O)[C@H](Cc2cnc[nH]2)NC(=O)[C@H]2CCCCN2C1=O | 220 | – | – | – | – | –
CC[C@H](C)[C@@H]1NC(=O)[C@@H](Cc2cccc3ccccc23)NC(=O)[C@@H]2CCCN2C(=O)[C@@H](Cc2ccccc2)N(C)C(=O)[C@H](CCCCN)NC(=O)[C@H]2CCCCN2C1=O | 45 | 150 | 510 | – | – | –
CC[C@H](C)[C@@H]1NC(=O)[C@@H](Cc2ccc3ccccc3c2)NC(=O)[C@@H]2CCCN2C(=O)[C@@H](Cc2ccccc2)N(C)C(=O)[C@H](CCCCN)NC(=O)[C@H]2CCCCN2C1=O (cyclo(I[dPip]K[dNMeF]P[d2Nal])) | 13 | 110 | 1300 | – | – | solubility [3]: 1700 µg/mL (≈ 2100 µM)
CC[C@H](C)[C@@H]1NC(=O)[C@@H](Cc2cccc3ccccc23)NC(=O)[C@@H]2CCCN2C(=O)[C@@H](Cc2cnc[nH]2)NC(=O)[C@@H]2CCCCN2C(=O)[C@H]2CCCCN2C1=O (cyclo(I[dPip][Pip][dH]P[d1Nal])) | 8.3 | 720 | 750 | – | – | –
CC[C@H](C)[C@@H]1NC(=O)[C@@H](Cc2c[nH]c3ccccc23)NC(=O)[C@@H]2CCCN2C(=O)[C@@H](Cc2c[nH]cn2)NC(=O)[C@@H]2CCCCN2C(=O)[C@H]2CCCCN2C1=O (cyclo(I[dPip][Pip][dH]P[dW])) | – | – | – | – | – | AD50 (Rattus norvegicus): 1.3 µg/kg
CC[C@H](C)[C@@H]1NC(=O)[C@@H](Cc2ccccc2)NC(=O)[C@@H]2CCCN2C(=O)[C@@H](CCCCN)NC(=O)[C@@H]2CCCCN2C(=O)[C@H]2CCCCN2C1=O (cyclo(I[dPip][Pip][dK]P[dF])) | 410 | 7400 | 1100 | – | – | –
CC[C@H](C)[C@@H]1NC(=O)[C@@H](Cc2ccccc2)NC(=O)[C@@H]2CCCN2C(=O)[C@@H](Cc2ccccc2)N(C)C(=O)[C@@H]2CCCCN2C(=O)[C@H]2CCCCN2C1=O (cyclo(I[dPip][Pip][dNMeF]P[dF])) | 200 | 3800 | 3200 | – | – | –
CC[C@H](C)[C@@H]1NC(=O)[C@@H](Cc2c[nH]c3ccccc23)NC(=O)[C@@H]2CCCN2C(=O)[C@@H](Cc2c[nH]cn2)N(C)C(=O)[C@@H]2CCCCN2C(=O)[C@H]2CCCCN2C1=O (cyclo(I[dPip][Pip][dNMeH]P[dW])) | – | – | 14000 | – | – | –
CC[C@H](C)[C@@H]1NC(=O)[C@@H](Cc2c[nH]c3ccccc23)NC(=O)[C@@H]2CCCN2C(=O)[C@@H](Cc2ccccc2)N(C)C(=O)[C@H](CCCN)NC(=O)[C@H]2CCC=NN2C1=O (cyclo(I[dPiz(1,6-dehydro)][Orn][dNMeF]P[dW])) | 25 | – | – | – | – | –
CC[C@H](C)[C@@H]1NC(=O)[C@@H](Cc2ccccc2)NC(=O)[C@@H]2CCCN2C(=O)[C@@H](Cc2ccccc2)N(C)C(=O)[C@@H]2CCC=NN2C(=O)[C@H]2CCC=NN2C1=O (cyclo(I[dPiz(1,6-dehydro)][Piz(1,6-dehydro)][dNMeF]P[dF])) | 18 | – | – | – | – | –
CC(C)C[C@@H]1NC(=O)[C@@H](Cc2c[nH]c3ccccc23)NC(=O)[C@@H]2CCCN2C(=O)[C@@H](Cc2c[nH]cn2)NC(=O)[C@@H]2CCCCN2C(=O)[C@H]2CCCCN2C1=O (cyclo(L[dPip][Pip][dH]P[dW])) | – | 11000 | 3000 | – | – | –
CCCC[C@@H]1NC(=O)[C@@H](Cc2c[nH]c3ccccc23)NC(=O)[C@@H]2CCCN2C(=O)[C@@H](Cc2c[nH]cn2)NC(=O)[C@@H]2CCCCN2C(=O)[C@H]2CCCCN2C1=O (cyclo([Nle][dPip][Pip][dH]P[dW])) | – | 1700 | 1300 | – | – | –

The next lines start with results.

IC50 (Oxytocin receptor) [nM] | IC50 (Vasopressin V2 receptor) [nM] | IC50 (Vasopressin V1a receptor) [nM] | inhibition [1] [%] | inhibition [2] [%] | Structure (SMILES) | further results
2700 | – | – | – | – | CC[C@H](C)[C@@H]1NC(=O)[C@@H](Cc2ccccc2)NC(=O)[C@@H]2CCCN2C(=O)[C@@H](Cc2ccccc2)N(C)C(=O)[C@H](C)N(C)C(=O)[C@H]2CCCCN2C1=O | –
30000 | – | – | – | – | C[C@@H]1NC(=O)[C@@H](Cc2ccccc2)NC(=O)[C@@H]2CCCN2C(=O)[C@@H](Cc2ccccc2)N(C)C(=O)[C@@H]2CCCCN2C(=O)[C@H]2CCCCN2C1=O | –
25000 | – | – | 19 | 18 | CC[C@H](C)[C@H]1C(=O)N2CCCC[C@@H]2C(=O)N2CCCC[C@H]2C(=O)N(C)[C@H](Cc2ccccc2)C(=O)N2CCC[C@H]2C(=O)N[C@H](Cc2ccccc2)C(=O)N1C | –
160 | 1400 | 2000 | – | – | CC[C@H](C)[C@@H]1NC(=O)[C@@H](Cc2ccccc2)NC(=O)[C@@H]2CCCN2C(=O)[C@@H](Cc2ccccc2)N(C)C(=O)[C@H](CCCCN)NC(=O)[C@H]2CCCCN2C1=O | –
670 | – | – | 39 | 33 | CC[C@H](C)[C@@H]1NC(=O)[C@@H](Cc2ccccc2)NC(=O)[C@@H]2CCCN2C(=O)[C@@H](Cc2ccccc2)N(C)C(=O)[C@@H]2CCCN2C(=O)[C@H]2CCCCN2C1=O | –
– | – | – | 48 | 51 | CC[C@H](C)[C@@H]1NC(=O)[C@@H](Cc2ccccc2)NC(=O)[C@@H]2CCCCN2C(=O)[C@@H](Cc2ccccc2)N(C)C(=O)[C@@H]2CCCCN2C(=O)[C@H]2CCCCN2C1=O | –
– | – | – | 65 | 66 | CC[C@H](C)[C@@H]1NC(=O)[C@@H](Cc2ccccc2)NC(=O)[C@@H]2CCCN2C(=O)[C@@H](Cc2ccccc2)N(C)C(=O)[C@H](Cc2c[nH]cn2)NC(=O)[C@H]2CCCCN2C1=O | –
– | – | – | 34 | 25 | CC[C@H](C)[C@@H]1NC(=O)[C@@H](Cc2ccccc2)NC(=O)[C@@H]2CCCN2C(=O)[C@H](Cc2ccccc2)N(C)C(=O)[C@H](C)N(C)C(=O)[C@H]2CCCCN2C1=O | –
– | – | – | 2 | 3 | C[C@@H]1NC(=O)[C@@H](Cc2ccccc2)NC(=O)[C@@H]2CCCN2C(=O)[C@H](Cc2ccccc2)N(C)C(=O)[C@@H]2CCCCN2C(=O)[C@H]2CCCCN2C1=O | –
1500 | – | – | 12 | 0 | CC[C@H](C)[C@@H]1NC(=O)[C@@H](Cc2ccccc2)NC(=O)[C@@H]2CCCN2C(=O)[C@@H](Cc2ccccc2)N(C)C(=O)[C@H](CC(=O)O)NC(=O)[C@H]2CCCCN2C1=O (cyclo(D[dNMeF]P[dF]I[dPip])) | –
1500 | – | – | 17 | 20 | CC[C@H](C)[C@@H]1NC(=O)[C@@H](Cc2ccccc2)NC(=O)[C@@H]2CCCN2C(=O)[C@@H](Cc2ccccc2)N(C)C(=O)[C@@H]2CCCCN2C(=O)[C@@H](C)N(C)C1=O (cyclo(I[dNMeA][Pip][dNMeF]P[dF])) | –
540 | – | – | 43 | 23 | CC[C@H](C)[C@@H]1NC(=O)[C@@H](Cc2ccccc2)NC(=O)[C@@H]2CCCN2C(=O)[C@@H](Cc2ccccc2)N(C)C(=O)[C@@H]2CCCCN2C(=O)[C@H]2CCCN2C1=O (cyclo(I[dP][Pip][dNMeF]P[dF])) | –
190 | – | – | 77 | 45 | C=CCN1C(=O)[C@@H]2CCCCN2C(=O)[C@H]2CCCCN2C(=O)[C@H]([C@@H](C)CC)NC(=O)[C@@H](Cc2ccccc2)NC(=O)[C@@H]2CCCN2C(=O)[C@H]1Cc1ccccc1 (cyclo(I[dPip][Pip][X1]P[dF])) | –
340 | 11000 | – | – | – | CC[C@H](C)[C@@H]1NC(=O)[C@@H](Cc2ccccc2)NC(=O)[C@@H]2CCCN2C(=O)[C@@H](Cc2ccccc2)NC(=O)[C@@H]2CCCCN2C(=O)[C@H]2CCCCN2C1=O (cyclo(I[dPip][Pip][dF]P[dF])) | –
1200 | – | – | 12 | 20 | CC[C@H](C)[C@@H]1NC(=O)[C@@H](Cc2ccccc2)NC(=O)[C@@H]2CCCN2C(=O)[C@@H](C)N(C)C(=O)[C@@H]2CCCCN2C(=O)[C@H]2CCCCN2C1=O (cyclo(I[dPip][Pip][dNMeA]P[dF])) | –
930 | – | – | 37 | 34 | CC[C@H](C)[C@@H]1NC(=O)[C@@H](Cc2ccccc2)NC(=O)[C@H](C)N(C)C(=O)[C@@H](Cc2ccccc2)N(C)C(=O)[C@@H]2CCCCN2C(=O)[C@H]2CCCCN2C1=O (cyclo(I[dPip][Pip][dNMeF][NMeA][dF])) | –
15 | 1200 | 3500 | – | – | CC[C@H](C)[C@@H]1NC(=O)[C@@H](Cc2ccccc2)NC(=O)[C@@H]2CCCN2C(=O)[C@@H](Cc2ccccc2)N(C)C(=O)[C@@H]2CCCCN2C(=O)[C@H]2CCC=NN2C1=O (cyclo(I[dPiz(1,6-dehydro)][Pip][dNMeF]P[dF])) | –
– | 81000 | 3300 | – | – | CC[C@H](C)[C@@H]1NC(=O)[C@@H](Cc2ccccc2)NC(=O)[C@@H]2CCCN2C(=O)[C@@H](Cc2ccccc2)N(C)C(=O)[C@@H]2CCCN2C(=O)[C@H]2CCCN2C1=O (cyclo([dNMeF]P[dF]I[dP]P)) | –
